Data: patent US11414398B2, “Selective organic cation transporters inhibitors for the treatment of depressive disorders” (priority 2017, dated 2022)

What was measured:
human OCT2 = target: T1, human OCT2 (Homo sapiens, UniProt O15244); assay: OCT inhibition in transfected cells ([3H]ASP+ uptake); format: cell-based
T1 construct: expressed in transfected cells; host or cells: COS cells
T1 sequence (O15244 1-555): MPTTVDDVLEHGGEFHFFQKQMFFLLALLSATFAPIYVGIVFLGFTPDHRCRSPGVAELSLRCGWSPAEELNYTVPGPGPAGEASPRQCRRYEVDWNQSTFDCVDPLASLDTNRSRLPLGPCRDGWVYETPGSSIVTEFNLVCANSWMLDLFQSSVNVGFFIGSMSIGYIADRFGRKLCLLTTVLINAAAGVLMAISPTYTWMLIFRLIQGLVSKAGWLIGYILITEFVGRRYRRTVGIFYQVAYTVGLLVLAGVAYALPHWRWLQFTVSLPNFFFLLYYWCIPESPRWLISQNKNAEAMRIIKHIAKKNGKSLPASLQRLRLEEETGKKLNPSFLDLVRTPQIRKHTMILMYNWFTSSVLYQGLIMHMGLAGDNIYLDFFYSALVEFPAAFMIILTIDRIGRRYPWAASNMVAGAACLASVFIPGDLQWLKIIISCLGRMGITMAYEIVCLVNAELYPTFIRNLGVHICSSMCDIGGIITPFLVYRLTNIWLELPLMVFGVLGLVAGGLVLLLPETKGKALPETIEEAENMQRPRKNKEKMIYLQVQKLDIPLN
Description: Method. […] Tested concentrations: 1.10^−9; 3.10^−9; 1.10^−8; 3.10^−8; 1.10^−7; 3.10^−7; 1.10^−6; 3.10^−6 mol·L^−1.

alpha 1D adrenoceptors = target: T2, alpha 1D adrenoceptors (Homo sapiens, UniProt P25100); assay: Displacement of [3H]Prazosin binding in CHO cells (Eurofins); conditions: 0.2 nM [3H]Prazosin, 60 min, 22° C., human recombinant, read-out: inhibition of binding of specific ligand
T2 construct: host or cells: CHO cells
T2 sequence (P25100 1-572): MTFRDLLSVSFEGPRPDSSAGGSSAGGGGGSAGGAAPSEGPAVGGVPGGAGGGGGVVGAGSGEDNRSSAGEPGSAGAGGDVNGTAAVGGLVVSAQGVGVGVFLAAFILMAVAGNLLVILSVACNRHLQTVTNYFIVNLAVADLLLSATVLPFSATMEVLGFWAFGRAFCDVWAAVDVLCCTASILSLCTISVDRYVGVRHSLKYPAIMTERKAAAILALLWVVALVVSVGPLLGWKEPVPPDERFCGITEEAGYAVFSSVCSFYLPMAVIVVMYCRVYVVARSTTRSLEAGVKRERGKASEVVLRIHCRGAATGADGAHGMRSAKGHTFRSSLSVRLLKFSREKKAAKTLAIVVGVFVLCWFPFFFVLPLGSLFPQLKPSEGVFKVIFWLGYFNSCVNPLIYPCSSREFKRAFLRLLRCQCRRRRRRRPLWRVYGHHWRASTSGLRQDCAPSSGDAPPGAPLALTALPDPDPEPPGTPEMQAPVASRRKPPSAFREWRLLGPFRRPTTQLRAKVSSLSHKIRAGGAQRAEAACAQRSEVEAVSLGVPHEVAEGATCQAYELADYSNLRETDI
Method: (§1) Method. The displacement by compound (II-1) of binding of selective ligands of alpha adrenergic receptors 1D and 2C (0.2 nM [^3H]Prazosin and 2 nM [^3H]RX 821002, respectively) was evaluated for 60 min at 22° C. in CHO cells expressing the human recombinant adrenoceptors (Eurofins).

alpha 2C adrenoceptors = target: T3, alpha 2C adrenoceptors (Homo sapiens, UniProt P18825); assay: Displacement of [3H]RX 821002 binding in CHO cells (Eurofins); conditions: 2 nM [3H]RX 821002, 60 min, 22° C., human recombinant, read-out: inhibition of binding of specific ligand
T3 construct: host or cells: CHO cells
T3 sequence (P18825 1-462): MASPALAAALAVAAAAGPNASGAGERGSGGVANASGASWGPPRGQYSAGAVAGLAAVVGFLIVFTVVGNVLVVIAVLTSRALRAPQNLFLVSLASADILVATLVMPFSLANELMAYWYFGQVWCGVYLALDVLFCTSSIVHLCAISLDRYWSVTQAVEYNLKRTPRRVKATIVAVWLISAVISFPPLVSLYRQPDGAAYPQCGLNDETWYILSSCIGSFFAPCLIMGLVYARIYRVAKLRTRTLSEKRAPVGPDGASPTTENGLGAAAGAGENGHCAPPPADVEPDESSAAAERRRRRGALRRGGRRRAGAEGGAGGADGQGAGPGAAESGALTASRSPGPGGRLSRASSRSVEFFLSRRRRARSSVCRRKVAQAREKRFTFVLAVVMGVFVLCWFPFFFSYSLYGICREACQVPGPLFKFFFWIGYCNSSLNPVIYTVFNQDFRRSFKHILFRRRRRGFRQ
Method: as §1

## COc1ccc2c(c1)C=C/C(=C/c1cc[n+](C(C)C)c3ccccc13)N2C(C)C.[I-] [II-1, (Z)-1-isopropyl-4-((1-isopropyl-6-methoxyquinolin-2(1H)-ylidene)methyl)quinolin-1-ium iodide]
Human OCT2; hOCT2 IC50 versus literature D24 value
  IC50 less than that of D24 on human and rodent OCTs: 3 to 4 fold
Human OCT2; uptake of [3H]ASP+ (5 μM) in COS cells transfected with human OCT2, 20 min, 37° C.
  IC50: 0.082 µM
Alpha 1D adrenoceptors
  inhibition at 1 µM: 69%
Alpha 2C adrenoceptors
  inhibition at 1 µM: 66%
